According to the CheMixHub viscosity set:
“And” between values parts separate entries of the source, which are not always exact repeats. Identical values can stand only once.

C1COCCN1
101 kPa
Conditions | viscosity
293.15 K | 2.12 mPa·s and 2.282 mPa·s
303.15 K | 1.74 mPa·s
313.15 K | 1.45 mPa·s
323.15 K | 1.21 mPa·s

CC(=O)[O-].C[NH+]1CCCC1
Conditions | viscosity [mPa·s]
298.15 K, 100 kPa | 3.78

CC(C)Br
101 kPa
Conditions | viscosity [mPa·s]
298.15 K | 0.4981
303.15 K | 0.4835
308.15 K | 0.4708
313.15 K | 0.4389
318.15 K | 0.4194

CC(CCO)CC(C)(C)C (stereo not given)
101.33 kPa
Conditions | viscosity [mPa·s]
298.15 K | 10.97
303.15 K | 10.44
308.15 K | 9.608

CC(O)CO (stereo not given)
viscosity
Conditions | 293.15 K | 298.15 K | 303.15 K | 308.15 K | 313 K | 313.15 K | 318.15 K | 323.15 K
100 kPa | 54.6 mPa·s and 58.75 mPa·s and 59.2 mPa·s | – | 33.06 mPa·s | 25.31 mPa·s and 24.9 mPa·s | – | 19.65 mPa·s and 19.3 mPa·s | – | 12.53 mPa·s and 12.54 mPa·s and 12.51 mPa·s
101 kPa | – | – | 34.28 mPa·s and 33.1 mPa·s | – | 20.2 mPa·s | 20.43 mPa·s and 19.65 mPa·s and 21.46 mPa·s | – | 12.2 mPa·s
101.3 kPa | 57.2 mPa·s | 43.5 mPa·s and 43.6 mPa·s | 32.73 mPa·s | 25.1 mPa·s and 24.8 mPa·s | – | 19.47 mPa·s and 19.47 mPa·s | 15.36 mPa·s and 15.2 mPa·s and 15.36 mPa·s | 12.34 mPa·s

CCCCC(=O)[O-].CC[NH+](CC)CCO
101 kPa
Conditions | viscosity [mPa·s]
293.15 K | 62.45
298.15 K | 47.75
303.15 K | 37.12
308.15 K | 29.31
313.15 K | 23.48
318.15 K | 19.07
323.15 K | 15.68

CCCCCCCC[P+](CC)(CC)CC.N#Cc1ccc[n-]1
100 kPa
Conditions | viscosity [mPa·s]
293.15 K | 272
298.15 K | 189
303.15 K | 140
313.15 K | 82

CCCCn1cc[n+](C)c1.COP(=O)([O-])OC
101 kPa
Conditions | viscosity [mPa·s]
293.15 K | 895.4
298.15 K | 608.9
303.15 K | 426
308.15 K | 305.8
313.15 K | 224.9
318.15 K | 168.9
323.15 K | 129.4

CCC[N+]1(C)CCCC1.N#C[N-]C#N
Conditions | viscosity [mPa·s]
313.15 K, 101 kPa | 18.6

Cc1ccccn1
viscosity
Conditions | 293.15 K | 298.15 K | 298.18 K | 303.15 K | 303.21 K | 308.23 K | 313.15 K | 313.29 K | 318.33 K | 323.15 K
101 kPa | 0.808 mPa·s | 0.792 mPa·s | 0.751 mPa·s | – | 0.704 mPa·s | 0.663 mPa·s | 0.628 mPa·s | 0.623 mPa·s | 0.588 mPa·s | –
101.3 kPa | – | – | – | 0.7406 mPa·s | – | – | 0.6537 mPa·s and 0.6534 mPa·s | – | – | 0.5843 mPa·s

ClC=C(Cl)Cl
Conditions | viscosity
293.15 K, 101 kPa | 0.568 mPa·s
293.15 K, 101.33 kPa | 0.572 mPa·s
298 K, 101 kPa | 0.69 mPa·s
298.15 K, 101 kPa | 0.531 mPa·s
298.15 K, 101.33 kPa | 0.529 mPa·s and 0.618 mPa·s
303 K, 101 kPa | 0.66 mPa·s
303.15 K, 101 kPa | 0.52 mPa·s and 0.523 mPa·s
303.15 K, 101.3 kPa | 0.509 mPa·s and 0.515 mPa·s
303.15 K, 101.32 kPa | 0.523 mPa·s
303.15 K, 101.33 kPa | 0.523 mPa·s and 0.515 mPa·s and 0.532 mPa·s
308 K, 101 kPa | 0.63 mPa·s
308.15 K, 101 kPa | 0.489 mPa·s
308.15 K, 101.33 kPa | 0.588 mPa·s
313 K, 101 kPa | 0.6 mPa·s
313.15 K, 101 kPa | 0.482 mPa·s and 0.531 mPa·s
313.15 K, 101.33 kPa | 0.486 mPa·s and 0.473 mPa·s
318.15 K, 101 kPa | 0.45 mPa·s
318.15 K, 101.33 kPa | 0.557 mPa·s
323.15 K, 101 kPa | 0.445 mPa·s and 0.472 mPa·s

NC1CCCCC1
101 kPa
Conditions | viscosity
298.15 K | 1.753 mPa·s (2×) and 1.773 mPa·s and 1.753 mPa·s
303.15 K | 1.656 mPa·s and 1.648 mPa·s
308.15 K | 1.325 mPa·s and 1.325 mPa·s

O=C1CCCC1
viscosity
Conditions | 298.15 K | 303.15 K | 308.15 K | 313.15 K | 318.15 K
100 kPa | – | 0.985 mPa·s | 0.931 mPa·s | 0.863 mPa·s | 0.811 mPa·s
101 kPa | 1.084 mPa·s and 1.125 mPa·s | – | 0.923 mPa·s and 0.931 mPa·s and 0.928 mPa·s | 0.861 mPa·s and 0.861 mPa·s and 0.863 mPa·s | 0.811 mPa·s
101.3 kPa | 1.074 mPa·s | – | – | – | –
101.33 kPa | – | 0.992 mPa·s | – | – | –

O=C[O-].OCC[NH2+]CCO
100 kPa
Conditions | viscosity [mPa·s]
293.15 K | 470.9
303.15 K | 242
313.15 K | 135
323.15 K | 82.25
